From paper PMC3433420 (PLoS ONE, 2012)
Read-outs that look alike come from different tables or passages of the source. Residues, ends and D or L forms follow the SMILES beside them.

Key:
[1] = biological target: GRB2 SH2 domain (Homo sapiens, UniProt P62993); assay: FP saturation binding assay
[2] = biological target: VAV2 SH2 domain (Homo sapiens, UniProt P52735); assay: FP saturation binding assay
[3] = biological target: SH2 and PTB domains; conditions: original PM interactions, ref Jones et al. 2006 / Kaushansky et al. Chem and Biol 2008, cited from earlier work
Text: Supplement pone.0044471.s022.xlsx, sheet "Most recent PM interactions" | column: Kd || Supplement pone.0044471.s022.xlsx, sheet "All original PM interactions" | column: Kd

[4] = biological target: GRB7 SH2 domain (Homo sapiens, UniProt Q14451); parameters: 6X His; thioredoxin; made in house; host or cells: E. coli BL21(DE3)pLysS; conditions: previous protein microarray data, Figure S5; cited from earlier work
Sequence of GRB7 SH2 domain (Q14451 431-527 limits assumed): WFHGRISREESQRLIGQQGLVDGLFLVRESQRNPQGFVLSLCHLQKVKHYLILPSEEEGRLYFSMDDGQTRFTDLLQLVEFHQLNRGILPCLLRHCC

Sequence of VAV2 SH2 domain (P52735 673-767 limits assumed): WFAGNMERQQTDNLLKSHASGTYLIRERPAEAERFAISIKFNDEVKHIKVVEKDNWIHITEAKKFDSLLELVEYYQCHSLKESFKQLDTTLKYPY
Sequence of GRB2 SH2 domain (P62993 60-152 limits assumed): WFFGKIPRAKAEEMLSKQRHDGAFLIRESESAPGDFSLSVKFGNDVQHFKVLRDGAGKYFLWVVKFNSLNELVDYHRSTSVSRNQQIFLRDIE

Question: For `CC(C)C[C@H](NC(=O)[C@H](Cc1ccc(OP(=O)(O)O)cc1)NC(=O)[C@H](CC(C)C)NC(=O)[C@@H]1CCCN1C(=O)[C@H](CCC(=O)O)NC(=O)[C@H](CC(N)=O)NC(=O)[C@@H](NC(=O)[C@H](Cc1ccc(O)cc1)NC(=O)[C@H](CCC(=O)O)NC(=O)[C@H](CC(=O)O)NC(=O)[C@@H](N)CCC(=O)O)C(C)C)C(=O)N[C@@H](CC(N)=O)C(=O)N[C@H](C(=O)N[C@@H](Cc1ccccc1)C(=O)N[C@@H](C)C(=O)N[C@@H](CC(N)=O)C(=O)N[C@H](C(=O)N[C@@H](CC(=O)O)C(=O)O)[C@@H](C)O)[C@@H](C)O` [ErbB4 1208 18-mer] (HELM PEPTIDE1{E.D.E.Y.V.N.E.P.L.[O=C([C@H](Cc1ccc(OP(=O)(O)O)cc1)N[*:1])[*:2]].L.N.T.F.A.N.T.D}$$$$V2.0), which Kd [1] is on record?
Answer: 2.46 µM

Question: Which Kd [2] does the source give for `CC(C)C[C@H](NC(=O)[C@H](Cc1ccc(OP(=O)(O)O)cc1)NC(=O)[C@H](CCC(=O)O)NC(=O)[C@H](CCC(=O)O)NC(=O)[C@H](C)NC(=O)[C@@H](N)CC(=O)O)C(=O)N[C@H](C(=O)N1CCC[C@H]1C(=O)N[C@@H](CCC(N)=O)C(=O)N[C@@H](CCC(N)=O)C(=O)NCC(=O)N[C@@H](Cc1ccccc1)C(=O)N[C@@H](CC(=O)O)C(=O)O)C(C)C` [ErbB2 1023 13-mer] (HELM PEPTIDE1{D.A.E.E.[O=C([C@H](Cc1ccc(OP(=O)(O)O)cc1)N[*:1])[*:2]].L.V.P.Q.Q.G.F.D}$$$$V2.0) here?
Answer: 9.9 µM

Question: For “DNLYpYWDQDPPEd [ErbB2 pY1222, N-terminally rhodamine-labeled 13-mer phosphopeptide]”, which Kd ([3]; Protein ABL1) is on record?
Answer: 1.84 µM

Question: And the Kd ([3]; Protein ABL2)?
Answer: 0.19 µM

Question: And the Kd ([3]; Protein BCAR3)?
Answer: 2 µM

Question: And the Kd ([3]; Protein BLK)?
Answer: 2 µM

Question: What about the Kd ([3]; Protein BMX) of the same compound?
Answer: 2 µM

Question: What about the Kd ([3]; Protein BTK) of the same compound?
Answer: 2 µM

Question: What about the Kd ([3]; Protein CRKL) of the same compound?
Answer: 1.46 µM

Question: What about the Kd ([3]; Protein DAPP1) of the same compound?
Answer: 2 µM

Question: And the Kd ([3]; Protein FGR)?
Answer: 2 µM

Question: And the Kd ([3]; Protein GRB10)?
Answer: 0.49 µM

Question: And the Kd ([3]; Protein HSH2D)?
Answer: 2 µM

Question: What about the Kd ([3]; Protein ITK) of the same compound?
Answer: 2 µM

Question: What about the Kd ([3]; Protein NCK1) of the same compound?
Answer: 2 µM

Question: And the Kd ([3]; Protein PIK3R1-C)?
Answer: 2 µM

Question: What about the Kd ([3]; Protein PIK3R1-NC) of the same compound?
Answer: 1.84 µM

Question: And the Kd ([3]; Protein PIK3R2-NC)?
Answer: 2 µM

Question: And the Kd ([3]; Protein PIK3R3-C)?
Answer: 2 µM

Question: And the Kd ([3]; Protein PIK3R3-NC)?
Answer: 0.78 µM

Question: And the Kd ([3]; Protein PLCG1-N)?
Answer: 2 µM

Question: And the Kd ([3]; Protein PLCG1-NC)?
Answer: 1.79 µM

Question: And the Kd ([3]; Protein PLCG2-N)?
Answer: 2 µM

Question: What about the Kd ([3]; Protein PLCG2-NC) of the same compound?
Answer: 2 µM

Question: What about the Kd ([3]; Protein PTPN6-C) of the same compound?
Answer: 2 µM

Question: And the Kd ([3]; Protein PTPN11-N)?
Answer: 2 µM

Question: And the Kd ([3]; Protein RASA1-C)?
Answer: 2 µM

Question: What about the Kd ([3]; Protein RASA1-N) of the same compound?
Answer: 0.5 µM

Question: What about the Kd ([3]; Protein RASA1-NC) of the same compound?
Answer: 2 µM

Question: And the Kd ([3]; Protein SH2B2)?
Answer: 1.47 µM

Question: What about the Kd ([3]; Protein SH2B3) of the same compound?
Answer: 2 µM

Question: And the Kd ([3]; Protein SH2D1A)?
Answer: 2 µM

Question: What about the Kd ([3]; Protein SH2D1B) of the same compound?
Answer: 2 µM

Question: And the Kd ([3]; Protein SH2D3A)?
Answer: 1.6 µM

Question: What about the Kd ([3]; Protein SH2D3C) of the same compound?
Answer: 0.71 µM

Question: What about the Kd ([3]; Protein SHC1-PTB) of the same compound?
Answer: 0.09 µM

Question: And the Kd ([3]; Protein SHC1)?
Answer: 2 µM

Question: And the Kd ([3]; Protein SHC2-PTB)?
Answer: 0.46 µM

Question: And the Kd ([3]; Protein SHC3)?
Answer: 1.71 µM

Question: And the Kd ([3]; Protein SHC4)?
Answer: 2 µM

Question: And the Kd ([3]; Protein SHD)?
Answer: 2 µM

Question: And the Kd ([3]; Protein SHF)?
Answer: 2 µM

Question: And the Kd ([3]; Protein SLA2)?
Answer: 2 µM

Question: What about the Kd ([3]; Protein SLA) of the same compound?
Answer: 2 µM

Question: And the Kd ([3]; Protein SOCS1)?
Answer: 1.92 µM

Question: And the Kd ([3]; Protein SOCS2)?
Answer: 2 µM

Question: And the Kd ([3]; Protein SOCS3)?
Answer: 2 µM

Question: And the Kd ([3]; Protein SOCS5)?
Answer: 2 µM

Question: What about the Kd ([3]; Protein SOCS6) of the same compound?
Answer: 2 µM

Question: And the Kd ([3]; Protein SRC)?
Answer: 2 µM

Question: What about the Kd ([3]; Protein SUPT6H) of the same compound?
Answer: 2 µM

Question: And the Kd ([3]; Protein SYK-C)?
Answer: 1.97 µM

Question: And the Kd ([3]; Protein SYK-N)?
Answer: 0.2 µM

Question: And the Kd ([3]; Protein SYK-NC)?
Answer: 0.46 µM

Question: What about the Kd ([3]; Protein TEC) of the same compound?
Answer: 1.61 µM

Question: And the Kd ([3]; Protein TENC1)?
Answer: 0.84 µM

Question: What about the Kd ([3]; Protein TNS1) of the same compound?
Answer: 2 µM

Question: What about the Kd ([3]; Protein TNS3) of the same compound?
Answer: 1.29 µM

Question: What about the Kd ([3]; Protein TXK) of the same compound?
Answer: 2 µM

Question: What about the Kd ([3]; Protein VAV1) of the same compound?
Answer: 2 µM

Question: And the Kd ([3]; Protein VAV2)?
Answer: 2 µM

Question: What about the Kd ([3]; Protein VAV3) of the same compound?
Answer: 2 µM

Question: And the Kd ([3]; Protein YES1)?
Answer: 2 µM

Question: What about the “interaction with GRB7 on the PM platform” value [4] of the same compound?
Answer: only displayed interactions with GRB7 from the PM platform
